Results on 12 molecules are retold here after patent US20250235543A1, “MODIFIED PROTEINS AND PROTEIN DEGRADERS” (Cullgen (Shanghai), Inc., priority 2021, published 2025).

One experiment concerns cyclin D1. Nature of the experiment: Cyclin D1 percentage degradation in Calu-1 cells (immunoblotting). Type of experiment: cell-based. The following applies: 200 nM, 16 hours. The method, boiled down:
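Cells were rinsed once in cold PBS and lysed in cold RIPA buffer containing protease and phosphatase inhibitors, with gentle agitation at 4° C. for 30 min. Lysates were spun at 13,000 rpm for 10 min at 4° C., protein was measured by BCA, and samples were boiled in Laemmli buffer at 99° C. for 5 min before SDS-PAGE immunoblotting.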
In general terms: Immunoblotting shows a protein as a band on a membrane.

A further experiment deals with T1, CDK4 (Homo sapiens, UniProt P11802).
T1 construct: endogenous in cells; host or cells: Calu-1
Nature of the experiment: CDK4 percentage degradation in Calu-1 cells (immunoblotting). The experiment is classed as cell-based. The following applies: read-out: CDK4 Degradation (200 nM). The method in brief:
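Cultured cells were rinsed once in cold PBS and lysed in cold RIPA buffer containing protease and phosphatase inhibitors, with gentle agitation at 4° C. for 30 min. Lysates were centrifuged at 13,000 rpm for 10 min at 4° C., and protein was quantified by BCA. Samples were then separated by SDS-PAGE, detected with ECL, and the CDK4 bands quantified in Image Lab.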

Like-named read-outs stand apart in the source and are kept apart here.

T1 sequence (P11802 2-303 limits assumed): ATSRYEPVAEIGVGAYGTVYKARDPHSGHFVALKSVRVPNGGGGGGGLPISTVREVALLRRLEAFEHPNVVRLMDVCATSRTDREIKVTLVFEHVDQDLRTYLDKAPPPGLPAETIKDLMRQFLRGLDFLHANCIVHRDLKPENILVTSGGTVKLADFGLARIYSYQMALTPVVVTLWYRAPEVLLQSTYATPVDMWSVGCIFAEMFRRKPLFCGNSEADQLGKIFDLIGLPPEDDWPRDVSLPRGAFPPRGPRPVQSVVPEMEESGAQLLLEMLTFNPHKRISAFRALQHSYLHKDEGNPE
T1 sequence (P24385 whole entry partner): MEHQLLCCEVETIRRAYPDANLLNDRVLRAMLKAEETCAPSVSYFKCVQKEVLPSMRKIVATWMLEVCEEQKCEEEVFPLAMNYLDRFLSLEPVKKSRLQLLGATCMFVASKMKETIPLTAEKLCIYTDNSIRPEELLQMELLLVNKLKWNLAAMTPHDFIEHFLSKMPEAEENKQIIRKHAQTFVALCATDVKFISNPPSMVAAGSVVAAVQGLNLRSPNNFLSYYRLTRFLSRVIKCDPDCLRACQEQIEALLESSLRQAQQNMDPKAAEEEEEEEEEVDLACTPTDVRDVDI
T1 sequence (Q16531 2-1140 limits assumed, further chain): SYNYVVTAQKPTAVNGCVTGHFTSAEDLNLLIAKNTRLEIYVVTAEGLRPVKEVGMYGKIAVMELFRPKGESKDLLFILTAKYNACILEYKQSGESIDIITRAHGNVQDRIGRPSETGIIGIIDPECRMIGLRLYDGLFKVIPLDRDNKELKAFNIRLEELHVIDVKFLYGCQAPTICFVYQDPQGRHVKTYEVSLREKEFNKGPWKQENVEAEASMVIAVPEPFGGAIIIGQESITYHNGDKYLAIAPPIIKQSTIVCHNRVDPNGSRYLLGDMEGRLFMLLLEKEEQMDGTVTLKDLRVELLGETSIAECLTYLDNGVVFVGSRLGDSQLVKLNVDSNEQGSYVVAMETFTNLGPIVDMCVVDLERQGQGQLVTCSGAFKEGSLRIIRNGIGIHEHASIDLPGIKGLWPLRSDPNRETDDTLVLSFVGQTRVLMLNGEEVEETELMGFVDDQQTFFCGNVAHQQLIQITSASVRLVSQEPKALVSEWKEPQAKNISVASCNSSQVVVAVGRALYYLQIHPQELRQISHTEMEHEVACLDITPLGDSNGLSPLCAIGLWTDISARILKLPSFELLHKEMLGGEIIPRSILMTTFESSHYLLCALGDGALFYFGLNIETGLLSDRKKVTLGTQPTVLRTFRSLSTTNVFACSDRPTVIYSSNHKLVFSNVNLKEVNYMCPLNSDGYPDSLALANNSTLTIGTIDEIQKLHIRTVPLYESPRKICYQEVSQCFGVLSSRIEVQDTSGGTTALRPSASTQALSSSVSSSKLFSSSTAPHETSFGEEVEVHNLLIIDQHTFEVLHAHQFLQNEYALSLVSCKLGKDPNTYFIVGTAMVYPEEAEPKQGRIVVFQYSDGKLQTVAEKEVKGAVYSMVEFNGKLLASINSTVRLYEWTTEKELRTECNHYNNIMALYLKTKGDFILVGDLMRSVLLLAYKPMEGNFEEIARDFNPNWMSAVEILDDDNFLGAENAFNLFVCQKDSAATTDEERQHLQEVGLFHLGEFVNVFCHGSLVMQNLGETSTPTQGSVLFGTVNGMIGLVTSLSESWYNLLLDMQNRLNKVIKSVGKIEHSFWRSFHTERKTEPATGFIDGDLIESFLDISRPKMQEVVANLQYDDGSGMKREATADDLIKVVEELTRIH

Regarding `CC(=O)c1c(C)c2cnc(Nc3ccc(N4CCN(CC(=O)NCCCCCCCCC(=O)Nc5ccccc5C(=O)Nc5nc(C)c(C)s5)CC4)cn3)nc2n(C2CCCC2)c1=O` [CPD-113, 2-(9-(2-(4-(6-((6-Acetyl-8-cyclopentyl-5-methyl-7-oxo-7,8-dihydropyrido[2,3-d]pyrimidin-2-yl)amino)pyridin-3-yl)piperazin-1-yl)acetamido)nonanamido)-N-(4,5-dimethylthiazol-2-yl)benzamide], the “CyclinD1 Degradation (200 nM)” value in the experiment on cyclin D1 is listed as “A (protein percentage degradation >=80%)”. Moreover, the inhibition at 0.2 µM at CDK4 (Calu-1 cells, 200 nM, 16 hours) lay in the range of 50 to 80%.
On the same counts, the results for `CC(=O)c1c(C)c2cnc(Nc3ccc(N4CCN(CC(=O)NCCCCCNc5ccc(C)c(C(=O)Nc6nc(C)c(C)s6)c5)CC4)cn3)nc2n(C2CCCC2)c1=O` [CPD-116, 5-((5-(2-(4-(6-((6-Acetyl-8-cyclopentyl-5-methyl-7-oxo-7,8-dihydropyrido[2,3-d]pyrimidin-2-yl)amino)pyridin-3-yl)piperazin-1-yl)acetamido)pentyl)amino)-N-(4,5-dimethylthiazol-2-yl)-2-methylbenzamide] are “D (protein percentage degradation <30%)” and < 30%.
On to `CC(=O)c1c(C)c2cnc(Nc3ccc(N4CCN(CC(=O)NCCCCCCCNc5ccc(C)c(C(=O)Nc6nc(C)c(C)s6)c5)CC4)cn3)nc2n(C2CCCC2)c1=O` [CPD-117, 5-((7-(2-(4-(6-((6-Acetyl-8-cyclopentyl-5-methyl-7-oxo-7,8-dihydropyrido[2,3-d]pyrimidin-2-yl)amino)pyridin-3-yl)piperazin-1-yl)acetamido)heptyl)amino)-N-(4,5-dimethylthiazol-2-yl)-2-methylbenzamide], for which the “CyclinD1 Degradation (200 nM)” value in the experiment on cyclin D1 is “C (protein percentage degradation <50%, and >=30%)”. Also, the inhibition at 0.2 µM at CDK4 (Calu-1 cells, 200 nM, 16 hours) lay within 30 to 50%.
Regarding `CC(=O)c1c(C)c2cnc(Nc3ccc(N4CCN(CC(=O)NCCOCCOCCOCCOCCNc5ccc(C)c(C(=O)Nc6nc(C)c(C)s6)c5)CC4)cn3)nc2n(C2CCCC2)c1=O` [CPD-118, 5-((1-(4-(6-((6-Acetyl-8-cyclopentyl-5-methyl-7-oxo-7,8-dihydropyrido[2,3-d]pyrimidin-2-yl)amino)pyridin-3-yl)piperazin-1-yl)-2-oxo-6,9,12,15-tetraoxa-3-azaheptadecan-17-yl)amino)-N-(4,5-dimethylthiazol-2-yl)-2-methylbenzamide], the “CyclinD1 Degradation (200 nM)” value in the experiment on cyclin D1 is recorded as “D (protein percentage degradation <30%)”. On CDK4 (Calu-1 cells, 200 nM, 16 hours), the inhibition at 0.2 µM is < 30%.
In the case of `CC(=O)c1c(C)c2cnc(Nc3ccc(N4CCN(C(=O)CCOCCNc5cccc(C(=O)Nc6nc(C)c(C)s6)c5C)CC4)cn3)nc2n(C2CCCC2)c1=O` [CPD-120, 3-((2-(3-(4-(6-((6-Acetyl-8-cyclopentyl-5-methyl-7-oxo-7,8-dihydropyrido[2,3-d]pyrimidin-2-yl)amino)pyridin-3-yl)piperazin-1-yl)-3-oxopropoxy)ethyl)amino)-N-(4,5-dimethylthiazol-2-yl)-2-methylbenzamide], the “CyclinD1 Degradation (200 nM)” value with cyclin D1 is listed as “D (protein percentage degradation <30%)”. Moreover, the inhibition at 0.2 µM on CDK4 (Calu-1, 16 h) is < 30%.
On to `CC(=O)c1c(C)c2cnc(Nc3ccc(N4CCN(C(=O)CCOCCOCCNc5cccc(C(=O)Nc6nc(C)c(C)s6)c5C)CC4)cn3)nc2n(C2CCCC2)c1=O` [CPD-121, 3-((2-(2-(3-(4-(6-((6-Acetyl-8-cyclopentyl-5-methyl-7-oxo-7,8-dihydropyrido[2,3-d]pyrimidin-2-yl)amino)pyridin-3-yl)piperazin-1-yl)-3-oxopropoxy)ethoxy)ethyl)amino)-N-(4,5-dimethylthiazol-2-yl)-2-methylbenzamide], for which the “CyclinD1 Degradation (200 nM)” value with cyclin D1 was “C (protein percentage degradation <50%, and >=30%)”. Moreover, the inhibition at 0.2 µM on CDK4 (Calu-1 cells, 200 nM, 16 hours) was 30 to 50%.
Regarding `CC(=O)c1c(C)c2cnc(Nc3ccc(N4CCN(C(=O)CCOCCOCCOCCNc5cccc(C(=O)Nc6nc(C)c(C)s6)c5C)CC4)cn3)nc2n(C2CCCC2)c1=O` [CPD-122, 3-((2-(2-(2-(3-(4-(6-((6-Acetyl-8-cyclopentyl-5-methyl-7-oxo-7,8-dihydropyrido[2,3-d]pyrimidin-2-yl)amino)pyridin-3-yl)piperazin-1-yl)-3-oxopropoxy)ethoxy)ethoxy)ethyl)amino)-N-(4,5-dimethylthiazol-2-yl)-2-methylbenzamide], the “CyclinD1 Degradation (200 nM)” value in the experiment with cyclin D1 is given as “A (protein percentage degradation >=80%)”. In addition, on CDK4 (Calu-1, 16 h), the inhibition at 0.2 µM was in the range of 50 to 80%.
Taken in the same sequence, the figures for `CC(=O)c1c(C)c2cnc(Nc3ccc(N4CCN(C(=O)CCOCCOCCOCCOCCNc5cccc(C(=O)Nc6nc(C)c(C)s6)c5C)CC4)cn3)nc2n(C2CCCC2)c1=O` [CPD-123, 3-((15-(4-(6-((6-Acetyl-8-cyclopentyl-5-methyl-7-oxo-7,8-dihydropyrido[2,3-d]pyrimidin-2-yl)amino)pyridin-3-yl)piperazin-1-yl)-15-oxo-3,6,9,12-tetraoxapentadecyl)amino)-N-(4,5-dimethylthiazol-2-yl)-2-methylbenzamide] were “A (protein percentage degradation >=80%)” and 50 to 80%.
Consider `CC(=O)c1c(C)c2cnc(Nc3ccc(N4CCN(C(=O)CNc5cccc(C(=O)Nc6nc(C)c(C)s6)c5C)CC4)cn3)nc2n(C2CCCC2)c1=O` [CPD-124, 3-((2-(4-(6-((6-Acetyl-8-cyclopentyl-5-methyl-7-oxo-7,8-dihydropyrido[2,3-d]pyrimidin-2-yl)amino)pyridin-3-yl)piperazin-1-yl)-2-oxoethyl)amino)-N-(4,5-dimethylthiazol-2-yl)-2-methylbenzamide], for which, in the experiment with cyclin D1, the “CyclinD1 Degradation (200 nM)” value is “D (protein percentage degradation <30%)”. The inhibition at 0.2 µM on CDK4 (Calu-1, 16 h) is < 30%.
On the same counts, the results for `CC(=O)c1c(C)c2cnc(Nc3ccc(N4CCN(C(=O)CCCCCCCNc5cccc(C(=O)Nc6nc(C)c(C)s6)c5C)CC4)cn3)nc2n(C2CCCC2)c1=O` [CPD-125, 3-((8-(4-(6-((6-Acetyl-8-cyclopentyl-5-methyl-7-oxo-7,8-dihydropyrido[2,3-d]pyrimidin-2-yl)amino)pyridin-3-yl)piperazin-1-yl)-8-oxooctyl)amino)-N-(4,5-dimethylthiazol-2-yl)-2-methylbenzamide] are “D (protein percentage degradation <30%)” and < 30%.
Consider `CC(=O)c1c(C)c2cnc(Nc3ccc(N4CCN(C(=O)CCOCCOCCOCCOCCOCCNc5cccc(C(=O)Nc6nc(C)c(C)s6)c5C)CC4)cn3)nc2n(C2CCCC2)c1=O` [CPD-126, 3-((18-(4-(6-((6-Acetyl-8-cyclopentyl-5-methyl-7-oxo-7,8-dihydropyrido[2,3-d]pyrimidin-2-yl)amino)pyridin-3-yl)piperazin-1-yl)-18-oxo-3,6,9,12,15-pentaoxaoctadecyl)amino)-N-(4,5-dimethylthiazol-2-yl)-2-methylbenzamide], for which the “CyclinD1 Degradation (200 nM)” value in the experiment with cyclin D1 is “B (protein percentage degradation <80%, and >=50%)”. Besides, the inhibition at 0.2 µM at CDK4 (Calu-1, 16 h) is 50 to 80%.
For `CC(=O)c1c(C)c2cnc(Nc3ccc(N4CCN(CC(=O)NCCOCCOCCOCCNc5ccc(C)c(C(=O)Nc6nc(C)c(C)s6)c5)CC4)cn3)nc2n(C2CCCC2)c1=O` [CPD-127, 5-((1-(4-(6-((6-Acetyl-8-cyclopentyl-5-methyl-7-oxo-7,8-dihydropyrido[2,3-d]pyrimidin-2-yl)amino)pyridin-3-yl)piperazin-1-yl)-2-oxo-6,9,12-trioxa-3-azatetradecan-14-yl)amino)-N-(4,5-dimethylthiazol-2-yl)-2-methylbenzamide], in the experiment with cyclin D1, the “CyclinD1 Degradation (200 nM)” value was “C (protein percentage degradation <50%, and >=30%)”. On CDK4 (Calu-1, 16 h), the inhibition at 0.2 µM lay in the range of 30 to 50%.
